# Reference: US20210403864A1, “METHODS AND COMPOSITIONS FOR TREATING ACTIVATED G-ALPHA Q MUTANT CANCERS OR MELANOCYTIC MALIGNANCIES” (Memorial Sloan Kettering Cancer Center, priority 2018, published 2021)
# Experiments:
# [1] = system: PKC and MAPK signaling (pRASGRP3, p-CRAF, p-MEK1/2, p-ERK1/2), cyclin D1 protein; assay: Western blot of downstream UVM signaling in UVM cells and A375 cells; format: cell-based, human; details: for inhibition of PKC and MAPK signaling and cyclin D1 protein / inhibition of MAPK targets (p-CRAF, p-MEK1/2, p-ERK1/2) / change in pRASGRP3: 500 nM YM; for inhibition of MAPK targets (p-CRAF, p-MEK1/2, p-ERK1/2): 2 hours
# Description: (§1) Immunoblotting. Lysates were harvested using SDS lysis buffer (50 mM Tris-HCL, pH 6.8, 1 mM EDTA, 150 mM NaCl, 1% SDS, […]) supplemented with fresh proteinase and phosphatase inhibitors (PhosSTOP, Roche, Basel, Switzerland; Complete EDTA-Free, Roche, Basel, Switzerland) and 1% PMSF (Sigma-Aldrich, St. Louis, Mo.). Lysates were incubated on ice for 30 minutes, sonicated for 15 minutes, and then centrifuged at max speed for 10 minutes at 4° C. Protein levels were quantified using BCA protein assay (Thermo Scientific, Waltham, Mass.). NuPAGE LDS Sample Buffer (4×) was added to a final concentration of 1×. Samples were run on NuPAGE Novex 4-12% Bis-Tris protein gels (Life Technologies, Carlsbad, Calif.), transferred electrophoretically to 0.45 μm PVDF membranes (Immobilon, EMD Millipore, Burlington, Mass.), and then blocked with StartingBlock blocking buffer (Thermo Scientific, Waltham, Mass.) for 1 hour at room temperature. Primary antibodies were incubated at 4° C. overnight in StartingBlock buffer at 1:1,000 dilution, unless noted otherwise. Primary Antibodies used in the experiments described herein are provided below:
# Given the unexpected sensitivity of GNAQ^Q209L mutation to YM in the melan-a system, the effect of YM on three human UVM cell lines that harbored the GNAQ^Q209L/P mutation was evaluated, using the BRAF^V600E mutant A375 cutaneous melanoma cell line as a negative control.
# [2] = system: human UVM cell lines that harbored the GNAQ^Q209L/P mutation; assay: IP1 accumulation assay in UVM cells; format: cell-based; details: YM treatment at 24 hours
# Description: Cells were treated with increasing concentrations of YM for 3 hours (top) and 24 hours (bottom). Error bars, s.e.m from three biological replicates, each with three technical replicates.
# IP1 Accumulation Assay. IP1 concentrations in GNAQ-transfected HEK293T cells, GNAQ-expressing melan-a cells and uveal melanoma cells was measured using a competitive homogenous time resolved fluorescence (HTRF) assay (CisBio, Bedford, Mass.). Briefly, 9,000 transiently transfected-HEK293T cells, 5,000 melan-a cells and 5,000 uveal melanoma cells were seeded in low-volume 384-well plates in 7 μL media for 24 hours prior YM-254890 treatment. […] Following incubation, cells were lysed by adding 3 μL/well of d2-labeled IP1 analogue as the fluorescence acceptor and the Terbium cryptate-labeled anti-IP1 mAb as the fluorescence donor, diluted in the kit-supplied lysis buffer. The plates were incubated overnight at RT and time-resolved fluorescence signals were read using the BioTek Synergy NEO plate reader (BioTek Instruments, Winooski, Vt.) at 620 nm and 655 nm. Results were calculated as a 665 nm/620 nm signal ratio, and IP1 concentrations were interpolated from a standard curve prepared using the supplied IP1 calibrator. […] Dose-response curves and bar graphs were analyzed using GraphPad Prism 7.0 software. […]
# [3] = system: human Mel202 uveal melanoma xenografts; assay: In vivo anti-tumor activity, xenografts in SCID mice; details: MEK162 10 mg/kg P.O. b.i.d.; YM-254890 2.5 mg/kg i.p. q.d.; over 20 days; single agents vs vehicle, combination vs vehicle and single agents
# Description: To evaluate the effect of YM-254890 and binimetinib (MEK162) in vivo, Mel202 uveal melanoma xenografts were established in SCID mice, and the mice were treated with vehicle only, 10 mg/kg MEK162 (P.O., b.i.d.), YM-254890 (2.5 mg/kg i.p., q.d.) or a combination of MEK162 and YM-254890. Tumor volumes were measured over 20 days.
# [4] = system: RASGRP3, CRAF, MEK, ERK phosphorylation and cyclin D1 expression; assay: Western blot of Gαq downstream signaling in melan-a cells; format: cell-based, mouse
# Description: The last sample for each cell line was also treated with TPA for 24 hours showing rescue of the pathway.
# Samples were treated with 500 nM YM for 0, 2, 4, 8, and 24 hours with the last lane being treatment plus TPA add back.
# as §1
# The effect of YM on Gαq downstream signaling was assayed, including RASGRP3 phosphorylation by PKC, phosphorylation of CRAF, MEK, and ERK (downstream of RAS) and cyclin D1 expression which integrates signaling to promote cell cycle progression.
substance,measurement,setting,value
YM-254890,inhibition of PKC and MAPK signaling and cyclin D1 protein,[1]; A375 cells (negative control),not in A375 cells
same,p-ERK1/2 level,"[1]; Mel202 cells, 24 hours",rebound
same,inhibition of pRASGRP3,"[1]; Mel202 cells, earlier time points, in contrast to Mel270 and OMM1.3",greater inhibition
same,inhibition of MAPK targets,"[1]; Mel202 cells, in contrast to Mel270 and OMM1.3",decreased inhibition
same,"inhibition of MAPK targets (p-CRAF, p-MEK1/2, p-ERK1/2)",[1]; Mel270 cells,significant inhibition
same,change in pRASGRP3,"[1]; Mel270 cells, 24 hours",small decreases
same,"inhibition of MAPK targets (p-CRAF, p-MEK1/2, p-ERK1/2)",[1]; OMM1.3 cells,significant inhibition
same,change in pRASGRP3,"[1]; OMM1.3 cells, 24 hours",small decreases
same,inhibition of PKC and MAPK signaling and cyclin D1 protein,[1]; UVM cells,inhibited
same,inhibition of IP1 accumulation,[2],inhibited
same,tumor volume,[3],moderate reduction
same,downstream signaling targets with TPA supplementation,"[4]; 24 hours after YM treatment, plus TPA",completely rescued
same,inhibition of MAPK signaling,"[4]; BRAF^V600E-expressing melan-a cells, 500 nM YM",ineffective
same,"inhibition of downstream signaling targets (p-RASGRP3, p-CRAF, p-MEK, p-ERK, cyclin D1)","[4]; CYSLTR2^L129Q, GNAQ^G48V, GNAQ^R183Q and GNAQ^Q209L-expressing melan-a cells, 500 nM YM, 0-24 hours",inhibited
same,kinetics of inhibition of downstream signaling compared to CYSLTR2^L129Q and GNAQ^G48V-expressing cells,"[4]; GNAQ^Q209L-expressing melan-a cells, 500 nM YM",slower kinetics
same,kinetics of inhibition of downstream signaling compared to CYSLTR2^L129Q and GNAQ^G48V-expressing cells,"[4]; GNAQ^R183Q-expressing melan-a cells, 500 nM YM",slower kinetics
same,inhibition of MAPK signaling,"[4]; KRAS^G12V-expressing melan-a cells, 500 nM YM",ineffective
